From PubChem BioAssay AID330 (DTP/NCI, 2004)
“And” between values parts separate entries of the source, which are not always exact repeats. Equal entries are not always repeated. Toxic doses and inconclusive results are not listed. How the source made its calls: active means survival T/C of 150% or more; inactive means T/C below 125% in these data.

Tested on: P388 leukemia ip, CD2F1 mice, survival T/C
Assay: NCI In Vivo Anticancer Drug Screen. Data for tumor model P388 Leukemia (intraperitoneal) in CD2F1 (CDF1) mice
Conditions: endpoint: median survival time, higher = longer survival
Summary of the method: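 Mice carrying the transplanted tumor received test compound or vehicle. Survival was recorded in each group, and the value is the treated-group measurement divided by that of the vehicle-treated control group.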

[1] = dose: 50.0 mg/kg/injection, schedule: Q01DX009 (ip), vehicle: saline
[2] = dose: 100.0 mg/kg/injection, schedule: Q01DX009 (ip), vehicle: saline
[3] = dose: 200.0 mg/kg/injection, schedule: Q01DX009 (ip), vehicle: saline
[4] = dose: 60.0 mg/kg/injection, schedule: Q01DX005 (ip), vehicle: saline with Tween-80
[5] = dose: 120.0 mg/kg/injection, schedule: Q01DX005 (ip), vehicle: saline with Tween-80
[6] = dose: 240.0 mg/kg/injection, schedule: Q01DX005 (ip), vehicle: saline with Tween-80
[7] = dose: 50.0 mg/kg/injection, schedule: Q01DX009 (ip), vehicle: saline with Tween-80
[8] = dose: 100.0 mg/kg/injection, schedule: Q01DX009 (ip), vehicle: saline with Tween-80
[9] = dose: 200.0 mg/kg/injection, schedule: Q01DX009 (ip), vehicle: saline with Tween-80
[10] = dose: 20.0 mg/kg/injection, schedule: Q01DX005 (ip), vehicle: Klucel (hydroxypropylcellulose) (HPC)
[11] = dose: 40.0 mg/kg/injection, schedule: Q01DX005 (ip), vehicle: Klucel (hydroxypropylcellulose) (HPC)
[12] = dose: 80.0 mg/kg/injection, schedule: Q01DX005 (ip), vehicle: Klucel (hydroxypropylcellulose) (HPC)
[13] = dose: 50.0 mg/kg/injection, schedule: Q01DX009 (ip), vehicle: Klucel (hydroxypropylcellulose) (HPC)
[14] = dose: 100.0 mg/kg/injection, schedule: Q01DX009 (ip), vehicle: Klucel (hydroxypropylcellulose) (HPC)
[15] = dose: 200.0 mg/kg/injection, schedule: Q01DX009 (ip), vehicle: Klucel (hydroxypropylcellulose) (HPC)

Measured: T/C

CC(C)=CCSC(N)N
inactive: dose: 7.5 mg/kg/injection, schedule: Q01DX005 (ip), vehicle: saline 99 % of control | dose: 15.0 mg/kg/injection, schedule: Q01DX005 (ip), vehicle: saline 99 % of control | dose: 30.0 mg/kg/injection, schedule: Q01DX005 (ip), vehicle: saline 99 % of control | dose: 60.0 mg/kg/injection, schedule: Q01DX005 (ip), vehicle: saline 101 % of control

CCOc1c(Cl)cc(Cl)cc1C(c1ccccc1S(=O)(=O)O)c1cc(Cl)cc(Cl)c1OCC
inactive: dose: 6.25 mg/kg/injection, schedule: Q01DX009 (ip), vehicle: saline with Tween-80 100 % of control | dose: 12.5 mg/kg/injection, schedule: Q01DX009 (ip), vehicle: saline with Tween-80 91 % of control

C[SiH](C)c1ccc(Cl)cc1
inactive: [1] 99 % of control | [2] 102 % of control | [3] 100 % of control

O=C(O)c1cccc2c1C1CCC2c2cccc(C(=O)O)c21
inactive: dose: 100.0 mg/kg/injection, schedule: Q04DX003 (ip), vehicle: Klucel (hydroxypropylcellulose) (HPC) 108 % of control | dose: 200.0 mg/kg/injection, schedule: Q04DX003 (ip), vehicle: Klucel (hydroxypropylcellulose) (HPC) 107 % of control | dose: 400.0 mg/kg/injection, schedule: Q04DX003 (ip), vehicle: Klucel (hydroxypropylcellulose) (HPC) 106 % of control

CCNC1=C(C(=O)OCC)C(=O)CO1
inactive: [4] 100 % of control | [5] 100 % of control | [6] 99 % of control

c1ccc2c(c1)C1CCC2[n+]2ccccc21 (stereo unspecified)
inactive: dose: 6.25 mg/kg/injection, schedule: Q01DX005 (ip), vehicle: Klucel (hydroxypropylcellulose) (HPC) 108 % of control | dose: 12.5 mg/kg/injection, schedule: Q01DX005 (ip), vehicle: Klucel (hydroxypropylcellulose) (HPC) 106 % of control | dose: 25.0 mg/kg/injection, schedule: Q01DX005 (ip), vehicle: Klucel (hydroxypropylcellulose) (HPC) 110 % of control

CC1(N2CCCCC2)C(=O)NC(=O)N(C2CCCCC2)C1=O (stereo unspecified)
inactive: dose: 60.0 mg/kg/injection, schedule: Q01DX005 (ip), vehicle: Klucel (hydroxypropylcellulose) (HPC) 88 % of control | dose: 120.0 mg/kg/injection, schedule: Q01DX005 (ip), vehicle: Klucel (hydroxypropylcellulose) (HPC) 95 % of control | dose: 240.0 mg/kg/injection, schedule: Q01DX005 (ip), vehicle: Klucel (hydroxypropylcellulose) (HPC) 89 % of control

COc1c2occc2c(NC(=O)C(Cl)Cl)c2ccc(=O)oc12
inactive: dose: 2.5 mg/kg/injection, schedule: Q04DX002 (ip), vehicle: saline with Tween-80 101 % of control | dose: 5.0 mg/kg/injection, schedule: Q04DX002 (ip), vehicle: saline with Tween-80 100 % of control | dose: 10.0 mg/kg/injection, schedule: Q04DX002 (ip), vehicle: saline with Tween-80 99 % of control

CC(/C=C/c1ccccc1)=N\Nc1ccccc1
inactive: [7] 118 % of control | [8] 110 % of control and 112 % of control | dose: 132.0 mg/kg/injection, schedule: Q01DX009 (ip), vehicle: saline with Tween-80 100 % of control | [9] 100 % of control and 110 % of control and 121 % of control | dose: 300.0 mg/kg/injection, schedule: Q01DX009 (ip), vehicle: saline with Tween-80 107 % of control | dose: 400.0 mg/kg/injection, schedule: Q01DX009 (ip), vehicle: saline with Tween-80 106 % of control

O=C(CCN1C(=O)c2ccccc2C1=O)c1cnc(N2C(=O)c3ccccc3C2=O)[nH]1
inactive: [10] 98 % of control | [11] 97 % of control | [12] 91 % of control

C=COC(=O)C(C)(CC)CC(C)C (stereo unspecified)
inactive: dose: 50.0 mg/kg/injection, schedule: Q01DX009 (ip), vehicle: other 115 % of control | dose: 100.0 mg/kg/injection, schedule: Q01DX009 (ip), vehicle: other 108 % of control

CC(C)C1NC(=O)N(C2CCCCCC2)C1=O (stereo unspecified)
inactive: dose: 50.0 mg/kg/injection, schedule: Q01DX005 (ip), vehicle: Klucel (hydroxypropylcellulose) (HPC) 100 % of control | dose: 100.0 mg/kg/injection, schedule: Q01DX005 (ip), vehicle: Klucel (hydroxypropylcellulose) (HPC) 96 % of control | dose: 200.0 mg/kg/injection, schedule: Q01DX005 (ip), vehicle: Klucel (hydroxypropylcellulose) (HPC) 100 % of control

NC(N)=NCCCC(N=C1C=CC(=NC(CCCN=C(N)N)C(=O)O)C=C1)C(=O)O (stereo unspecified)
inactive: dose: 50.0 mg/kg/injection, schedule: Q04DX002 (ip), vehicle: distilled water + alcohol 99 % of control | dose: 100.0 mg/kg/injection, schedule: Q04DX002 (ip), vehicle: distilled water + alcohol 101 % of control | dose: 200.0 mg/kg/injection, schedule: Q04DX002 (ip), vehicle: distilled water + alcohol 104 % of control | dose: 400.0 mg/kg/injection, schedule: Q04DX002 (ip), vehicle: distilled water + alcohol 107 % of control | dose: 600.0 mg/kg/injection, schedule: Q04DX002 (ip), vehicle: distilled water + alcohol 108 % of control

O=C(CN1C(=O)c2cccc3c(Br)ccc(c23)C1=O)c1ccc(F)cc1
inactive: dose: 50.0 mg/kg/injection, schedule: Q01DX005 (ip), vehicle: saline with Tween-80 87 % of control | dose: 100.0 mg/kg/injection, schedule: Q01DX005 (ip), vehicle: saline with Tween-80 103 % of control | dose: 200.0 mg/kg/injection, schedule: Q01DX005 (ip), vehicle: saline with Tween-80 89 % of control

[CH2+][B-]1(C)n2ccc[n+]2[B-](C)(C)[n+]2cccn21
inactive: [4] 90 % of control | [5] 98 % of control | [6] 93 % of control

CCN(CC)Cc1cc(C)c(O)c(N=Nc2ccc3c(c2)c2ccccc2n3CC)c1C
inactive: [7] 102 % of control | [8] 110 % of control | [9] 101 % of control

O/N=C1\CCC2CCCCC2C1 (stereo unspecified)
inactive: [1] 103 % of control | [2] 103 % of control | [3] 104 % of control

CN(C)[C@@H]1C(=O)C(C(N)=O)=C(O)[C@@]2(O)C(=O)C3=C(O)c4c(O)cccc4C[C@H]3C[C@@H]12
inactive: dose: 7.5 mg/kg/injection, schedule: Q01DX010 (ip), vehicle: saline 115 % of control | dose: 15.0 mg/kg/injection, schedule: Q01DX010 (ip), vehicle: saline 120 % of control

NC(N)=NCC(NS(=O)(=O)c1ccccc1)C(=O)O (stereo unspecified)
inactive: [13] 111 % of control | [14] 111 % of control | [15] 104 % of control

COc1cc(/C=N/NC(=O)C(=O)N/N=C/c2cc(OC)c(OC)c(OC)c2)cc(OC)c1OC
inactive: [13] 89 % of control | [14] 95 % of control | [15] 93 % of control

C=C1C(=O)OC2C1C(OC(=O)/C(C)=C/C)CC1(C)OC1C1OC1C1(CO1)C2O (stereo unspecified)
inactive: dose: 5.0 mg/kg/injection, schedule: Q01DX005 (ip), vehicle: Klucel (hydroxypropylcellulose) (HPC) 106 % of control | dose: 10.0 mg/kg/injection, schedule: Q01DX005 (ip), vehicle: Klucel (hydroxypropylcellulose) (HPC) 97 % of control | [10] 95 % of control | [11] 104 % of control | [12] 116 % of control

CCOc1ccc(Nc2nc(C(Cl)(Cl)Cl)cc(C(Cl)(Cl)Cl)n2)cc1CN(CC)CC
inactive: dose: 6.25 mg/kg/injection, schedule: Q01DX009 (ip), vehicle: saline sonified 100 % of control | dose: 12.5 mg/kg/injection, schedule: Q01DX009 (ip), vehicle: saline sonified 100 % of control | dose: 25.0 mg/kg/injection, schedule: Q01DX009 (ip), vehicle: saline sonified 100 % of control
